PubChem BioAssay (NCI)
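Dose response: 5 concentrations. Exposure: 48 h. Format: 96-well plates. Endpoint: linear interpolation; highest concentration if not reached. At the GI50, growth is halved. TGI: total growth inhibition.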

What was measured:
Test in all cases: growth of human tumour cells (NCI), 48 h
[1] = tested on: SK-MEL-2 melanoma
[2] = tested on: CAKI-1 renal
[3] = tested on: CCRF-CEM leukemia
[4] = tested on: SK-OV-3 ovarian
[5] = tested on: MALME-3M melanoma
[6] = tested on: SN12C renal
[7] = tested on: SK-MEL-28 melanoma
[8] = tested on: UO-31 renal
[9] = tested on: COLO 205 colon
[10] = tested on: ACHN renal
[11] = tested on: HOP-62 NSCLC
[12] = tested on: OVCAR-4 ovarian
[13] = tested on: HOP-92 NSCLC
[14] = tested on: HCT-15 colon
[15] = tested on: RXF 393 renal
[16] = tested on: MOLT-4 leukemia
[17] = tested on: SF-295 CNS
[18] = tested on: PC-3 prostate
[19] = tested on: OVCAR-5 ovarian
[20] = tested on: NCI-H522 lung
[21] = tested on: DU-145 prostate
[22] = tested on: MCF7 breast
[23] = tested on: BT-549 breast
[24] = tested on: OVCAR-3 ovarian
[25] = tested on: LOX IMVI melanoma
[26] = tested on: T-47D breast
[27] = tested on: A498 renal
[28] = tested on: UACC-257 melanoma
[29] = tested on: K-562 leukemia
[30] = tested on: 786-0 renal
[31] = tested on: MDA-MB-231 breast
[32] = tested on: MDA-MB-435
[33] = tested on: SF-539 CNS
[34] = tested on: EKVX NSCLC
[35] = tested on: RPMI-8226 leukemia
[36] = tested on: M14 melanoma
[37] = tested on: NCI/ADR-RES ovarian
[38] = tested on: NCI-H226 lung
[39] = tested on: HT29 colon
[40] = tested on: U251 CNS
[41] = tested on: IGROV1 ovarian
[42] = tested on: NCI-H23 lung
[43] = tested on: OVCAR-8 ovarian
[44] = tested on: SW-620 colon
[45] = tested on: A549 NSCLC
[46] = tested on: SK-MEL-5 melanoma
[47] = tested on: UACC-62 melanoma
[48] = tested on: NCI-H460 lung
[49] = tested on: SNB-75 CNS
[50] = tested on: HS 578T breast
[51] = tested on: SR leukemia
[52] = tested on: HCT-116 colon
[53] = tested on: HL-60(TB) leukemia
[54] = tested on: KM12 colon
[55] = tested on: TK-10 renal
[56] = tested on: SNB-19 CNS
[57] = tested on: SF-268 CNS

Ic1ccc(-n2nnnc2-c2cnoc2-c2ccccc2)cc1
GI50 [1]: > 94 µM | TGI [1]: > 100 µM | GI50 [2]: 37.9 µM | TGI [2]: > 100 µM | GI50 [3]: 1.21 µM | TGI [3]: > 48.8 µM | GI50 [4]: > 65.4 µM | TGI [4]: > 100 µM | GI50 [5]: > 44.2 µM | TGI [5]: > 73.6 µM | GI50 [6]: 48.9 µM | TGI [6]: > 88.3 µM | GI50 [7]: > 62.2 µM | TGI [7]: > 100 µM | GI50 [8]: > 50.5 µM | TGI [8]: > 100 µM | GI50 [9]: > 59 µM | TGI [9]: > 100 µM | GI50 [10]: > 61.1 µM | TGI [10]: > 100 µM | GI50 [11]: 53.3 µM | TGI [11]: > 100 µM | GI50 [12]: > 64.2 µM | TGI [12]: > 100 µM | GI50 [13]: 37.9 µM | TGI [13]: > 100 µM | GI50 [14]: 29.1 µM | TGI [14]: > 73.6 µM | GI50 [15]: 43.1 µM | TGI [15]: > 100 µM | GI50 [16]: 70 µM | TGI [16]: > 100 µM | GI50 [17]: 38.2 µM | TGI [17]: > 77.8 µM | GI50 [18]: > 34.4 µM | TGI [18]: > 71.4 µM | GI50 [19]: > 100 µM | TGI [19]: > 100 µM | GI50 [20]: 46.3 µM | TGI [20]: > 100 µM | GI50 [21]: 5.99 µM | TGI [21]: > 100 µM | GI50 [22]: 35.2 µM | TGI [22]: > 100 µM | TGI [23]: 9.49 µM | GI50 [24]: 46.4 µM | TGI [24]: > 100 µM | GI50 [25]: 49.3 µM | TGI [25]: > 100 µM | GI50 [26]: 48.8 µM | TGI [26]: > 100 µM | GI50 [27]: 22 µM | TGI [27]: 74.4 µM | GI50 [28]: > 58.5 µM | TGI [28]: > 100 µM | GI50 [29]: 29.2 µM | TGI [29]: > 66.6 µM | GI50 [30]: 60.2 µM | TGI [30]: > 100 µM | GI50 [31]: > 51.9 µM | TGI [31]: > 91.2 µM | GI50 [32]: 24.5 µM | TGI [32]: > 57.5 µM | TGI [33]: 3.98 µM | GI50 [34]: 7.49 µM | TGI [34]: > 21.7 µM | GI50 [35]: 22.4 µM | TGI [35]: > 64 µM | GI50 [36]: 37.6 µM | TGI [36]: > 67.3 µM | GI50 [37]: 33 µM | TGI [37]: > 85.2 µM | GI50 [38]: 43 µM | TGI [38]: > 78.9 µM | GI50 [39]: > 100 µM | TGI [39]: > 100 µM | GI50 [40]: 44.8 µM | TGI [40]: > 100 µM | GI50 [41]: > 73.6 µM | TGI [41]: > 100 µM | GI50 [42]: 35.4 µM | TGI [42]: > 81 µM | GI50 [43]: > 50.4 µM | TGI [43]: > 77 µM | GI50 [44]: 39.6 µM | TGI [44]: > 100 µM | GI50 [45]: > 58.4 µM | TGI [45]: > 100 µM | GI50 [46]: 25.7 µM | TGI [46]: > 72.7 µM | GI50 [47]: 29.3 µM | TGI [47]: > 83.6 µM | GI50 [48]: 35 µM | TGI [48]: > 100 µM | GI50 [49]: > 56.8 µM | TGI [49]: > 100 µM | GI50 [50]: 42.7 µM | TGI [50]: 98.4 µM | GI50 [51]: 37.7 µM | TGI [51]: > 100 µM | GI50 [52]: > 43 µM | TGI [52]: > 70 µM | GI50 [53]: 78.9 µM | TGI [53]: > 100 µM | GI50 [54]: 47.1 µM | TGI [54]: > 89.6 µM | GI50 [55]: 41.5 µM | TGI [55]: > 82.3 µM | GI50 [56]: > 63.1 µM | TGI [56]: > 100 µM | GI50 [57]: 54 µM | TGI [57]: > 100 µM
